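How tested: cells in 96-well plates exposed to compound for 48 hours at five concentrations. TGI marks complete inhibition of growth.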
Assays:
Test in all cases: NCI-60 cell line screen, 48 h
786-0 renal = system: 786-0 renal
A498 renal = system: A498 renal
A549 NSCLC = system: A549 NSCLC
ACHN renal = system: ACHN renal
CAKI-1 renal = system: CAKI-1 renal
CCRF-CEM leukemia = system: CCRF-CEM leukemia
COLO 205 colon = system: COLO 205 colon
DLD-1 colon = system: DLD-1 colon
DMS 114 small cell lung = system: DMS 114 small cell lung
DMS 273 small cell lung = system: DMS 273 small cell lung
EKVX NSCLC = system: EKVX NSCLC
HCC-2998 colon = system: HCC-2998 colon
HCT-116 colon = system: HCT-116 colon
HCT-15 colon = system: HCT-15 colon
HL-60(TB) leukemia = system: HL-60(TB) leukemia
HOP-18 NSCLC = system: HOP-18 NSCLC
HOP-62 NSCLC = system: HOP-62 NSCLC
HOP-92 NSCLC = system: HOP-92 NSCLC
HT29 colon = system: HT29 colon
IGROV1 ovarian = system: IGROV1 ovarian
K-562 leukemia = system: K-562 leukemia
KM12 colon = system: KM12 colon
KM20L2 colon = system: KM20L2 colon
LOX IMVI melanoma = system: LOX IMVI melanoma
LXFL 529 NSCLC = system: LXFL 529 NSCLC
M14 melanoma = system: M14 melanoma
M19-MEL melanoma = system: M19-MEL melanoma
MALME-3M melanoma = system: MALME-3M melanoma
MOLT-4 leukemia = system: MOLT-4 leukemia
NCI-H226 lung = system: NCI-H226 lung
NCI-H23 lung = system: NCI-H23 lung
NCI-H460 lung = system: NCI-H460 lung
NCI-H522 lung = system: NCI-H522 lung
OVCAR-3 ovarian = system: OVCAR-3 ovarian
OVCAR-4 ovarian = system: OVCAR-4 ovarian
OVCAR-5 ovarian = system: OVCAR-5 ovarian
OVCAR-8 ovarian = system: OVCAR-8 ovarian
RPMI-8226 leukemia = system: RPMI-8226 leukemia
RXF-631 renal = system: RXF-631 renal
SF-268 CNS = system: SF-268 CNS
SF-295 CNS = system: SF-295 CNS
SF-539 CNS = system: SF-539 CNS
SK-MEL-2 melanoma = system: SK-MEL-2 melanoma
SK-MEL-28 melanoma = system: SK-MEL-28 melanoma
SK-MEL-5 melanoma = system: SK-MEL-5 melanoma
SK-OV-3 ovarian = system: SK-OV-3 ovarian
SN12C renal = system: SN12C renal
SNB-19 CNS = system: SNB-19 CNS
SNB-75 CNS = system: SNB-75 CNS
SNB-78 CNS = system: SNB-78 CNS
SR leukemia = system: SR leukemia
SW-620 colon = system: SW-620 colon
TK-10 renal = system: TK-10 renal
U251 CNS = system: U251 CNS
UACC-257 melanoma = system: UACC-257 melanoma
UACC-62 melanoma = system: UACC-62 melanoma
UO-31 renal = system: UO-31 renal
XF 498 CNS = system: XF 498 CNS
RXF 393 renal = system: RXF 393 renal

With `CCCCCCCC/C=C1\CCC(CN(C)C)C1=O` (stereo not given) the TGI (786-0 renal) was 2.88 µM, the TGI (A498 renal) was 30.7 µM and the TGI (A549 NSCLC) was 39.9 µM. It also gave a TGI (ACHN renal) of 18.7 µM, a TGI (CAKI-1 renal) of 10 µM and a TGI (CCRF-CEM leukemia) of 6.96 µM. For the same compound, the TGI (COLO 205 colon) was 14.8 µM, the TGI (DLD-1 colon) was 4.9 µM and the TGI (DMS 114 small cell lung) was 13.6 µM. For the same compound, the TGI (DMS 273 small cell lung) was 5.12 µM, the TGI (EKVX NSCLC) was 21.6 µM and the TGI (HCC-2998 colon) was 22 µM. It also gave a TGI (HCT-116 colon) of 7.34 µM, a TGI (HCT-15 colon) of 7.5 µM and a TGI (HL-60(TB) leukemia) of 22.2 µM. The TGI (HOP-18 NSCLC) was 33.8 µM, the TGI (HOP-62 NSCLC) was 24.7 µM and the TGI (HOP-92 NSCLC) was 8.02 µM. It also gave a TGI (HT29 colon) of 12.5 µM, a TGI (IGROV1 ovarian) of 20.8 µM and a TGI (K-562 leukemia) of 7.2 µM. It also gave a TGI (KM12 colon) of 7.09 µM, a TGI (KM20L2 colon) of 19.8 µM and a TGI (LOX IMVI melanoma) of 4.09 µM. For the same compound, the TGI (LXFL 529 NSCLC) was 3.01 µM, the TGI (M14 melanoma) was 12 µM and the TGI (M19-MEL melanoma) was 10.5 µM. For the same compound, the TGI (MALME-3M melanoma) was 14.3 µM, the TGI (MOLT-4 leukemia) was 10.1 µM and the TGI (NCI-H226 lung) was 37.3 µM. The TGI (NCI-H23 lung) was 24.4 µM, the TGI (NCI-H460 lung) was 28.4 µM and the TGI (NCI-H522 lung) was 13.3 µM. The TGI (OVCAR-3 ovarian) was 22 µM, the TGI (OVCAR-4 ovarian) was 29.1 µM and the TGI (OVCAR-5 ovarian) was 35.5 µM. It also gave a TGI (OVCAR-8 ovarian) of 9.67 µM, a TGI (RPMI-8226 leukemia) of 0.763 µM and a TGI (RXF-631 renal) of 17.9 µM. The TGI (SF-268 CNS) was 21.2 µM, the TGI (SF-295 CNS) was 18 µM and the TGI (SF-539 CNS) was 9.32 µM. For the same compound, the TGI (SK-MEL-2 melanoma) was 24.6 µM, the TGI (SK-MEL-28 melanoma) was 13.3 µM and the TGI (SK-MEL-5 melanoma) was 21.7 µM. For the same compound, the TGI (SK-OV-3 ovarian) was 30.9 µM, the TGI (SN12C renal) was 14.6 µM and the TGI (SNB-19 CNS) was 30.4 µM. The TGI (SNB-75 CNS) was 14.1 µM, the TGI (SNB-78 CNS) was 27.2 µM and the TGI (SR leukemia) was 13.1 µM. It also gave a TGI (SW-620 colon) of 8.69 µM, a TGI (TK-10 renal) of 6.03 µM and a TGI (U251 CNS) of 4.38 µM. The TGI (UACC-257 melanoma) was 16.8 µM, the TGI (UACC-62 melanoma) was 19.6 µM and the TGI (UO-31 renal) was 25.2 µM. It also gave a TGI (XF 498 CNS) of 12.8 µM.
With `CC(C)(C)N=CN1C=Cc2nc3ccccc3cc2C1` the TGI (786-0 renal) was > 100 µM, the TGI (A498 renal) was > 100 µM and the TGI (A549 NSCLC) was > 100 µM. For the same compound, the TGI (ACHN renal) was > 100 µM, the TGI (CAKI-1 renal) was > 100 µM and the TGI (CCRF-CEM leukemia) was > 100 µM. For the same compound, the TGI (COLO 205 colon) was > 100 µM, the TGI (DLD-1 colon) was > 100 µM and the TGI (DMS 114 small cell lung) was > 100 µM. The TGI (DMS 273 small cell lung) was > 100 µM, the TGI (EKVX NSCLC) was > 100 µM and the TGI (HCC-2998 colon) was > 100 µM. For the same compound, the TGI (HCT-116 colon) was > 100 µM, the TGI (HCT-15 colon) was > 100 µM and the TGI (HL-60(TB) leukemia) was > 100 µM. For the same compound, the TGI (HOP-18 NSCLC) was > 100 µM, the TGI (HOP-62 NSCLC) was > 100 µM and the TGI (HOP-92 NSCLC) was > 100 µM. For the same compound, the TGI (HT29 colon) was > 100 µM, the TGI (IGROV1 ovarian) was > 100 µM and the TGI (K-562 leukemia) was > 100 µM. For the same compound, the TGI (KM12 colon) was > 100 µM, the TGI (KM20L2 colon) was > 100 µM and the TGI (LOX IMVI melanoma) was 73.8 µM. The TGI (LXFL 529 NSCLC) was > 100 µM, the TGI (M14 melanoma) was > 100 µM and the TGI (M19-MEL melanoma) was > 100 µM. The TGI (MALME-3M melanoma) was > 100 µM, the TGI (MOLT-4 leukemia) was > 100 µM and the TGI (NCI-H23 lung) was > 100 µM. The TGI (NCI-H460 lung) was > 100 µM, the TGI (NCI-H522 lung) was > 100 µM and the TGI (OVCAR-3 ovarian) was > 100 µM. The TGI (OVCAR-4 ovarian) was > 100 µM, the TGI (OVCAR-5 ovarian) was > 100 µM and the TGI (OVCAR-8 ovarian) was > 100 µM. For the same compound, the TGI (RXF 393 renal) was > 100 µM, the TGI (RXF-631 renal) was > 100 µM and the TGI (SF-268 CNS) was > 100 µM. For the same compound, the TGI (SF-295 CNS) was > 100 µM, the TGI (SF-539 CNS) was > 100 µM and the TGI (SK-MEL-2 melanoma) was > 100 µM. For the same compound, the TGI (SK-MEL-28 melanoma) was > 100 µM, the TGI (SK-MEL-5 melanoma) was > 100 µM and the TGI (SK-OV-3 ovarian) was > 100 µM. The TGI (SN12C renal) was > 100 µM, the TGI (SNB-19 CNS) was > 100 µM and the TGI (SNB-75 CNS) was > 100 µM. For the same compound, the TGI (SNB-78 CNS) was > 100 µM, the TGI (SR leukemia) was > 100 µM and the TGI (SW-620 colon) was 49.2 µM. For the same compound, the TGI (TK-10 renal) was > 100 µM, the TGI (U251 CNS) was > 100 µM and the TGI (UACC-257 melanoma) was > 100 µM. The TGI (UACC-62 melanoma) was > 100 µM, the TGI (UO-31 renal) was > 100 µM and the TGI (XF 498 CNS) was > 100 µM.
